Patent US20240024290A1, “PHARMACEUTICAL COMPOSITIONS COMPRISING CANNABINOID AGONIST” (ARTELO BIOSCIENCES LIMITED, priority 2020, published 2024)
Values joined by “and” are separate entries in the source; they are usually repeats but may differ in a detail not shown here. Equal values may be shown once.

Experiments:
endocannabinoid system = conditions: in vivo; cited from earlier work
[1] = Solubility study of API in liquid, semi-solid and binary excipients (visual, solvent aliquots, Parts 1 and 2); conditions: for Aliquot where API first fully dissolved, Part 2 Study: aliquots 1/2/3/4 = 0.8/0.4/0.25/0.1 % w/v
Description: The aim of this study was to assess the solubility of the N-(2-(tert-butyl)-1-((4,4-difluorocyclohexyl)methyl)-1H-benzimidazol-5-yl)ethanesulfonamide in a number of different excipients.
The binary semi-solid composition mixtures were manufactured as follows: • I. The semi solids were dispensed then molten overnight at ˜60° C. […] (PEG 6000) • II. PEG 400 was added the next day, as required, (when all the semi-solids were molten) • III. Binary solvent mixture containing PEG 6000 were mixed at ˜80° C. and the remaining binaries were mixed at ˜70° C., until homogenous
Where required, the semi solids were melted prior to use (overnight). The solubility of the API in the selected solvents was assessed in two parts (Part 1 and Part 2 Studies) as follows: • i. Solvent aliquots were added to pre-dispensed API while mixing using a magnetic flea and stirrer. • ii. The temperature of the solvents was maintained as follows: • a. Single-component liquids: Room temperature (ambient) • b. TPGS and PEG 1500: ˜60° C. • c. PEG 6000 and binary solvent mixtures containing PEG 6000: ˜80° C. • iii. Solvents were mixed for a maximum of 1 hour between each aliquot addition. • iv. The solvents were carefully inspected visually between aliquots. • v. The addition of solvent was stopped when: • a. After Aliquot 2 addition if API fully dissolve—(even if API dissolve after Aliquot 1, Aliquot 2 was added) • b. After adding all the solvent aliquots in Table 28 • vi.

CCS(=O)(=O)Nc1ccc2c(c1)nc(C(C)(C)C)n2CC1CCC(F)(F)CC1 [Compound I, N-(2-(tert-butyl)-1-((4,4-difluorocyclohexyl)methyl)-1H-benzimidazol-5-yl)ethanesulfonamide]
Appetite stimulation (endocannabinoid system): stimulate appetite in a dose-dependent manner | CNS-psychoactive effects (endocannabinoid system): does not cause CNS-psychoactive effects | Aliquot where API first fully dissolved, Part 1 Study ([1]; in 1,2-propane diol, ambient, DND = did not dissolve even after 3 aliquots (0.0125 % w/v)): DND* | Aliquot where API first fully dissolved, Part 1 Study ([1]; in Corn oil, ambient, DND = did not dissolve even after 3 aliquots (0.0125 % w/v)): DND* | Aliquot where API first fully dissolved, Part 2 Study ([1]; in Diethylene glycol monoethyl ether, ambient): 2nd | Aliquot where API first fully dissolved, Part 1 Study ([1]; in Diethylene glycol monoethyl ether, ambient, aliquots 1/2/3 = 0.05/0.025/0.0125 % w/v): 1st | Solubility range (% w/v) Above/Below ([1]; in Diethylene glycol monoethyl ether, ambient, listed as API): > 0.40% w/v and < 0.80% w/v | Aliquot where API first fully dissolved, Part 1 Study ([1]; in Glycerol, ambient, DND = did not dissolve even after 3 aliquots (0.0125 % w/v)): DND* | Aliquot where API first fully dissolved, Part 1 Study ([1]; in Kolliphor EL, ambient, DND = did not dissolve even after 3 aliquots (0.0125 % w/v)): DND* | Aliquot where API first fully dissolved, Part 1 Study ([1]; in Kolliphor ELP, ambient, DND = did not dissolve even after 3 aliquots (0.0125 % w/v)): DND* | Aliquot where API first fully dissolved, Part 1 Study ([1]; in Labrafil M 2125 CS, ambient, DND = did not dissolve even after 3 aliquots (0.0125 % w/v)): DND* | Observation of Part 2 solution on standing ([1]; in Labrasol ALF, after 4 aliquots (0.1 % w/v), 5 days later at ambient): Precipitate | Aliquot where API first fully dissolved, Part 2 Study ([1]; in Labrasol ALF, ambient): 3rd | Solubility range (% w/v) Above/Below ([1]; in Labrasol ALF, ambient, listed as API): > 0.025% w/v and < 0.05% w/v | Aliquot where API first fully dissolved, Part 1 Study ([1]; in Labrasol ALF, ambient, only after stirring overnight, aliquots 1/2/3 = 0.05/0.025/0.0125 % w/v): 2nd^# | Aliquot where API first fully dissolved, Part 1 Study ([1]; in Miglyol 812 (Medium-chain Triglycerides), ambient, DND = did not dissolve even after 3 aliquots (0.0125 % w/v)): DND* | Aliquot where API first fully dissolved, Part 2 Study ([1]; in Octanoic acid, ambient): 2nd | Aliquot where API first fully dissolved, Part 1 Study ([1]; in Octanoic acid, ambient, aliquots 1/2/3 = 0.05/0.025/0.0125 % w/v): 2nd | Solubility range (% w/v) Above/Below ([1]; in Octanoic acid, ambient, listed as API): > 0.40% w/v and < 0.80% w/v | Aliquot where API first fully dissolved, Part 1 Study ([1]; in Oleic acid, ambient, DND = did not dissolve even after 3 aliquots (0.0125 % w/v)): DND* | Aliquot where API first fully dissolved, Part 2 Study ([1]; in PEG 400, ambient): 4th | Aliquot where API first fully dissolved, Part 1 Study ([1]; in PEG 400, ambient, aliquots 1/2/3 = 0.05/0.025/0.0125 % w/v): 2nd | Aliquot where API first fully dissolved, Part 2 Study ([1]; in PEG400:PEG 1500 (1:1)): 1st | Aliquot where API first fully dissolved, Part 1 Study ([1]; in PEG400:PEG 1500 (1:1), aliquots 1/2/3 = 0.05/0.025/0.0125 % w/v): 1st | Solubility range (% w/v) Above/Below ([1]; in PEG400:PEG 1500 (1:1), upper limit not known): > 0.80% w/v | Aliquot where API first fully dissolved, Part 2 Study ([1]; in PEG400:PEG 1500 (1:9)): 1st | Aliquot where API first fully dissolved, Part 1 Study ([1]; in PEG400:PEG 1500 (1:9), aliquots 1/2/3 = 0.05/0.025/0.0125 % w/v): 1st | Solubility range (% w/v) Above/Below ([1]; in PEG400:PEG 1500 (1:9), upper limit not known): > 0.80% w/v | Aliquot where API first fully dissolved, Part 2 Study ([1]; in PEG400:PEG 1500 (9:1)): 1st | Aliquot where API first fully dissolved, Part 1 Study ([1]; in PEG400:PEG 1500 (9:1), aliquots 1/2/3 = 0.05/0.025/0.0125 % w/v): 1st | Solubility range (% w/v) Above/Below ([1]; in PEG400:PEG 1500 (9:1), upper limit not known): > 0.80% w/v | Aliquot where API first fully dissolved, Part 2 Study ([1]; in PEG1500:PEG6000 (1:1), ~80° C.): 1st | Aliquot where API first fully dissolved, Part 1 Study ([1]; in PEG1500:PEG6000 (1:1), ~80° C., aliquots 1/2/3 = 0.05/0.025/0.0125 % w/v): 1st | Solubility range (% w/v) Above/Below ([1]; in PEG1500:PEG6000 (1:1), ~80° C., upper limit not known): > 0.80% w/v | Aliquot where API first fully dissolved, Part 2 Study ([1]; in PEG1500:PEG6000 (1:9), ~80° C.): 1st | Aliquot where API first fully dissolved, Part 1 Study ([1]; in PEG1500:PEG6000 (1:9), ~80° C., aliquots 1/2/3 = 0.05/0.025/0.0125 % w/v): 3rd | Solubility range (% w/v) Above/Below ([1]; in PEG1500:PEG6000 (1:9), ~80° C., upper limit not known): > 0.80% w/v | Aliquot where API first fully dissolved, Part 2 Study ([1]; in PEG1500:PEG6000 (9:1), ~80° C.): 1st | Aliquot where API first fully dissolved, Part 1 Study ([1]; in PEG1500:PEG6000 (9:1), ~80° C., aliquots 1/2/3 = 0.05/0.025/0.0125 % w/v): 1st | Solubility range (% w/v) Above/Below ([1]; in PEG1500:PEG6000 (9:1), ~80° C., upper limit not known): > 0.80% w/v | Aliquot where API first fully dissolved, Part 2 Study ([1]; in PEG1500:TPGS (1:1)): 1st | Aliquot where API first fully dissolved, Part 1 Study ([1]; in PEG1500:TPGS (1:1), aliquots 1/2/3 = 0.05/0.025/0.0125 % w/v): 1st | Solubility range (% w/v) Above/Below ([1]; in PEG1500:TPGS (1:1), upper limit not known): > 0.80% w/v
